These results are taken from US20100075965A1, “PI3 KINASE INHIBITORS AND METHODS OF THEIR USE” (Novartis AG, priority 2006, published 2010).

Like-named read-outs stand apart in the source and are kept apart here. A value given as a limit tells only on which side of the number the result lay.

One assay addresses PI3 K Alpha (Homo sapiens, UniProt P42336). Description: PI3 kinase phosphorylation assays (homogenous solution phase, one step solid phase, ATP depletion/KinaseGlo). The format is biochemical. As for the experimental part:
Compounds to be tested are dissolved in DMSO and directly distributed into 384-well flashplates at 1.25 μL per well. To start the reaction, 20 μL of 6 nM PI3 kinase are added into each well followed by 20 μL of 400 nM ATP containing a trace of radiolabeled ATP and 900 nM 1-alpha-phosphatidylinositol (PI). The plates are briefly centrifuged to remove any air gap. The reaction is performed for 15 minutes and then stopped by the addition of 20 μL of 100 mM EDTA. The stopped reaction is incubated overnight at RT to allow the lipid substrate to bind by hydrophobic interaction to the surface of the flashplate. The liquid in the wells is then washed away, and the labeled substrate is detected with scintillation counting.
This method is similar to Assay 1 except that the lipid substrate (1-alpha-phosphatidylinositol (PI)) is first dissolved in a coating buffer and incubated on flashplate at room temperature overnight to allow the lipid substrate to bind by hydrophobic interaction to the surface of the flashplate. Unbound substrate is then washed away. On the day of assay, 20 μL of 6 nM PI3 kinase are added into each well followed by 20 μL of 400 nM ATP containing trace of radiolabeled ATP. Compounds are added together with enzyme and ATP to the lipid-coated plates. The plates are briefly centrifuged to remove any air gap. The reaction is performed for two to three hours. The reaction is stopped by addition of 20 μL of 100 mM EDTA or by immediate plate washing. Phosphorylated lipid substrate is detected by scintillation counting.
Compounds to be tested are dissolved in DMSO and directly distributed into a black 384-well plate at 1.25 μL per well. To start the reaction, 25 μL of 10 nM PI3 kinase and 5 μg/mL 1-alpha-phosphatidylinositol (PI) are added into each well followed by 25 μL of 2 μM ATP. The reaction is performed until approx 50% of the ATP is depleted, and then stopped by the addition of 25 μL of KinaseGlo solution. The stopped reaction is incubated for 5 minutes and the remaining ATP is then detected via luminescence.

The next assay concerns A2780 cells. As to the kind of experiment: Viability assay in A2780 (Cell Titer Glo). The format is cell-based, human. To be noted: A2780 cells, read-out: A2780 Cell prolif. EC50. As for the experimental part: Cell viability was assessed with Cell Titer Glo assay, Promega. Cells were seeded in TC treated 96-well plates at a density of 1,000 (A2780 cells) per well in DMEM with 10% FBS, 1% Sodium Pyruvate, and 1% Penicillin Streptomycin for a minimum of 2 hrs prior to addition of compound. Test compounds were serially diluted (3 fold) in DMSO to 500× the final concentration. For each concentration of test compound, 2 μL (500×) aliquots of compound or 100% DMSO (control) were diluted in 500 μL of culture medium to 2× final concentration then diluted 1× on the cells. Cells were incubated for 72 hrs at 37° C., 5% CO2. After which Cell Titer Glo is added to determine viable cells, the assay was performed according to the manufacturer's instruction (Promega Corporation, Madison, Wis. USA). Each experimental condition was performed in duplicate. Raw data was imported in Abase and EC50s calculated with XL-fit data analysis software and are shown in Tables 1 and 2 in the column labeled “A2780 Cell prolif. EC50”.

PI3 K Alpha, sequence (P42336 whole entry): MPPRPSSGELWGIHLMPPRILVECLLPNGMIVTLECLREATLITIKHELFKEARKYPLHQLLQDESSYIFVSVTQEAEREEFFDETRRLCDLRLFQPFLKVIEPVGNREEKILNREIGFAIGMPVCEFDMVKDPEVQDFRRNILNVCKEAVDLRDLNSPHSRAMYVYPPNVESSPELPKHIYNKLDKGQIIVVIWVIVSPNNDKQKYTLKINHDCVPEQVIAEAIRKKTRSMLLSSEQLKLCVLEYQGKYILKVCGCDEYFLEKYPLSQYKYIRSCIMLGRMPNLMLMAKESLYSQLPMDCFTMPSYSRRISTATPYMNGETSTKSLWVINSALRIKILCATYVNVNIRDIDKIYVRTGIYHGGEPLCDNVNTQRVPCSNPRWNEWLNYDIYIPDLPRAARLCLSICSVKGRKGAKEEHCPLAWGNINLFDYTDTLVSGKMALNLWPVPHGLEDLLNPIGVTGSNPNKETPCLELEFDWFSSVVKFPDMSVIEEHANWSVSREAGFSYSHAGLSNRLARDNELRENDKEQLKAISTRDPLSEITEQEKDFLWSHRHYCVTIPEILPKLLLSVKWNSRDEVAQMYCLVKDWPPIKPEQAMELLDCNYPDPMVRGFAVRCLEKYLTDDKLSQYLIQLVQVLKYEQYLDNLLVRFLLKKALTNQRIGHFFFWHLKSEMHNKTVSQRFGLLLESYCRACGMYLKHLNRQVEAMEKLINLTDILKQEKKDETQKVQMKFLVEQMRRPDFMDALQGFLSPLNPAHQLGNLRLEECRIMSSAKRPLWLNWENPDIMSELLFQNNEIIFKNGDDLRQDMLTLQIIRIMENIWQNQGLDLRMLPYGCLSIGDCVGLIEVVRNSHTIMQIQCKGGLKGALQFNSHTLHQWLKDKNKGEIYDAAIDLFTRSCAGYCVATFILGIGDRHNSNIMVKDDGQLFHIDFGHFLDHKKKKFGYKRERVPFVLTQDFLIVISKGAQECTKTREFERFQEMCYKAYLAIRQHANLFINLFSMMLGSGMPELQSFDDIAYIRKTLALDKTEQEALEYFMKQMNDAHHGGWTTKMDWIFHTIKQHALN
PI3 K Alpha, sequence (P27986 whole entry partner): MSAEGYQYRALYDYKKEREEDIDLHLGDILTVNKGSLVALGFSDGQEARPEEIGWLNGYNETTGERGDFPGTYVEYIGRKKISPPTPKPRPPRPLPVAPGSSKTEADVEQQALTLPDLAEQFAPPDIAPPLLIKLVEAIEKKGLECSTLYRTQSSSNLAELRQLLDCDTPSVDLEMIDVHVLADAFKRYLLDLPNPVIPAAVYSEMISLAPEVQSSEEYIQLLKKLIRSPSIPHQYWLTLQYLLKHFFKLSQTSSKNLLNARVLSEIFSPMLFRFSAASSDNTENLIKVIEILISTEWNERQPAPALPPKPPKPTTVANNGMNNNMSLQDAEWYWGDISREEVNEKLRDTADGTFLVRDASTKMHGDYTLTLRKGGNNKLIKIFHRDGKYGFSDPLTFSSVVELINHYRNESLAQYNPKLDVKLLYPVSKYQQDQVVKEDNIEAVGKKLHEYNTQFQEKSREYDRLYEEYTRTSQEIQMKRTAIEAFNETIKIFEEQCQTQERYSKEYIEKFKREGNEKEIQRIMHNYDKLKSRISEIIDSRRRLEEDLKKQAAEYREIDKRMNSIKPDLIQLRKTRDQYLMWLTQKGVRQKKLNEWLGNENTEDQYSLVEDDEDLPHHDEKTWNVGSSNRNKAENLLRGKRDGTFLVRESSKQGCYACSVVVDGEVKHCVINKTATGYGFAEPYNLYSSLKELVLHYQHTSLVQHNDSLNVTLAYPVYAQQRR

`CC(=O)Nc1ccc(-c2c(NC(C)=O)nc3ccc(-c4cnc(N)c(C(F)(F)F)c4)cn23)cc1` [Example 162]: the IC50 on PI3 K Alpha (read-out: PI3K Alpha IC50) was under 1 µM. Moreover, the concentration giving a half-maximal response (EC50) in the assay with A2780 cells (Homo sapiens) was under 25 µM.
On to `CCN/N=C/c1cc(-c2ccc3nc(NC(C)=O)cn3c2)cnc1N` [Example 207, (E)-N-(6-(6-amino-5-((2-ethylhydrazono)methyl)pyridin-3-yl)imidazo[1,2-a]pyridin-2-yl)acetamide], for which the IC50 at PI3 K Alpha (read-out: PI3K Alpha IC50) is under 1 µM. Besides, in the assay on A2780 cells (Homo sapiens), the EC50 is under 10 µM.
Consider `CC(=O)Nc1cn2nc(-c3cnc(N)c(C(=O)NCCNS(C)(=O)=O)c3)ccc2n1` [Example 141, 5-(2-acetamido-imidazo[1,2-b]pyridazin-6-yl)-2-amino-N-(2-(methylsulfon amido)ethyl) nicotinamide], for which the IC50 at PI3 K Alpha (read-out: PI3K Alpha IC50) is under 1 µM. For the same compound, in the assay with A2780 cells (Homo sapiens), the EC50 was under 25 µM.
As for `CC(=O)Nc1cn2nc(-c3cnc(N)c(CN4CCCC4)c3)ccc2n1` [Example 242, N-(6-(6-amino-5-(pyrrolidin-1-ylmethyl)pyridin-3-yl)imidazo[1,2-b]pyridazin-2-yl)acetamide], the IC50 at PI3 K Alpha (read-out: PI3K Alpha IC50) is under 1 µM. In addition, the EC50 in the assay with A2780 cells (Homo sapiens) was under 10 µM.
As for `Nc1ncc(-c2ccc3nc(NC(=O)N4CCC[C@H]4CO)cn3c2)cc1C(F)(F)F` [Example 232, (S)-N-(6-(6-amino-5-(trifluoromethyl)pyridin-3-yl)imidazo[1,2-a]pyridin-2-yl)-2-(hydroxymethyl) pyrrolidine-1-carboxamide], the IC50 on PI3 K Alpha (read-out: PI3K Alpha IC50) was under 1 µM. Moreover, in the assay with A2780 cells (Homo sapiens), the EC50 is under 10 µM.
As to `Nc1ncc(-c2ccc3nc(NC(=O)N4CCC(C(=O)O)C4)cn3c2)cc1C(F)(F)F` (centres unmarked) [Example 151], at PI3 K Alpha (read-out: PI3K Alpha IC50), the IC50 is under 1 µM. For the same compound, in the assay with A2780 cells (Homo sapiens), the EC50 is under 25 µM.
As to `CC(=O)Nc1cn2nc(-c3cnc(N)c(OCC(F)(F)F)n3)ccc2n1` [Example 284, N-(6-(5-amino-6-(2,2,2-trifluoroethoxy)pyrazin-2-yl)imidazo[1,2-b]pyridazin-2-yl)acetamide], the EC50 with A2780 cells (Homo sapiens) was under 10 µM.
Take `Nc1ncc(-c2ccc3nc(NC(=O)c4cccc(Cl)c4)cn3c2)cc1C(F)(F)F` [Example 225, N-(6-(6-amino-5-(trifluoromethyl)pyridin-3-yl)imidazo[1,2-a]pyridin-2-yl)-3-chlorobenzamide]: on PI3 K Alpha (read-out: PI3K Alpha IC50), the half-inhibitory concentration (IC50) was under 1 µM. The EC50 in the assay on A2780 cells (Homo sapiens) is under 10 µM.
`Nc1ncc(-c2ccc3nc(NC(=O)COCc4ccccc4)cn3n2)cc1C(F)(F)F` [Example 217, N-(6-(6-amino-5-(trifluoromethyl)pyridin-3-yl)imidazo[1,2-b]pyridazin-2-yl)-2-(benzyloxy) acetamide]: the IC50 on PI3 K Alpha (read-out: PI3K Alpha IC50) is under 1 µM. The concentration for a half-maximal effect (EC50) in the assay with A2780 cells (Homo sapiens) is under 10 µM.
As to `Nc1ncc(-c2ccc3nc(NC(=O)Cc4ccccn4)cn3c2)cc1C(F)(F)F` [Example 52, N-(6-(6-amino-5-(trifluoromethyl)pyridin-3-yl)imidazo[1,2-a]pyridin-2-yl)-2-(pyridin-2-yl)acetamide], on PI3 K Alpha (read-out: PI3K Alpha IC50), the IC50 was under 1 µM. Further, the EC50 with A2780 cells (Homo sapiens) was under 10 µM.
Turning to `CNC(=O)[C@@H]1CCN1C(=O)Nc1cn2cc(-c3cnc(N)c(C(F)(F)F)c3)ccc2n1` [Example 36, (S)-N1-(6-(6-amino-5-(trifluoromethyl)pyridin-3-yl)imidazo[1,2-a]pyridin-2-yl)-N2-methylazetidine-1,2-dicarboxamide], at PI3 K Alpha (read-out: PI3K Alpha IC50), the IC50 was under 25 µM. The EC50 in the assay on A2780 cells (Homo sapiens) is under 25 µM.
Take `CC(=O)Nc1cn2cc(-c3ccc(N)nc3C)ccc2n1` [Example 144, N-(6-(6-amino-2-methylpyridin-3-yl)imidazo[1,2-a]pyridin-2-yl)acetamide]: the IC50 on PI3 K Alpha (read-out: PI3K Alpha IC50) was under 1 µM. Further, in the assay on A2780 cells (Homo sapiens), the 50% effective concentration (EC50) is under 25 µM.
On to `CC(=O)Nc1cn2cc(-c3cnc(N)c(CN4CCCC4)c3)ccc2n1` [Example 173, N-(6-(6-amino-5-(pyrrolidin-1-ylmethyl)pyridin-3-yl)imidazo[1,2-a]pyridin-2-yl)acetamide], for which, on PI3 K Alpha (read-out: PI3K Alpha IC50), the IC50 was under 1 µM. The EC50 with A2780 cells (Homo sapiens) is under 25 µM.
Turning to `CC(=O)Nc1cn2cc(-c3cnc(N)c(N4CCOCC4)n3)ccc2n1` [Example 201, N-(6-(5-amino-6-morpholino-pyrazin-2-yl)imidazo[1,2-a]pyridin-2-yl)acetamide], the IC50 on PI3 K Alpha (read-out: PI3K Alpha IC50) is under 1 µM. For the same compound, the EC50 in the assay with A2780 cells (Homo sapiens) was under 10 µM.
In the case of `NC(=O)Nc1cn2cc(-c3cnc(N)c(C(F)(F)F)c3)ccc2n1` [Example 219, 1-(6-(6-amino-5-(trifluoromethyl)pyridin-3-yl)imidazo[1,2-a]pyridin-2-yl)urea], the IC50 at PI3 K Alpha (read-out: PI3K Alpha IC50) is under 1 µM. The EC50 in the assay with A2780 cells (Homo sapiens) is under 10 µM.
As to `CCN1CCC(Oc2nc(-c3ccc4nc(NC(C)=O)cn4c3)cnc2N)CC1` [Example 286, N-(6-(5-amino-6-(1-ethylpiperidin-4-yloxy)pyrazin-2-yl)imidazo[1,2-a]pyridin-2-yl)acetamide], in the assay with A2780 cells (Homo sapiens), the EC50 was under 10 µM.
Consider `CNC(=O)[C@@H]1CCCN1C(=O)Nc1cn2cc(-c3cnc(N)c(C(F)(F)F)c3)ccc2n1` [Example 281, (S)-N1-(6-(6-amino-5-(trifluoromethyl)pyridin-3-yl)imidazo[1,2-a]pyridin-2-yl)-N2-methylpyrrolidine-1,2-dicarboxamide], for which the EC50 in the assay with A2780 cells (Homo sapiens) was under 25 µM.
Turning to `NC(=O)[C@@H]1CCCN1C(=O)Nc1cn2cc(-c3cnc(N)c(C(F)(F)F)c3)ccc2n1` [Example 285, (S)-N1-(6-(6-amino-5-(trifluoromethyl)pyridin-3-yl)imidazo[1,2-a]pyridin-2-yl)pyrrolidine-1,2-dicarboxamide], the EC50 in the assay on A2780 cells (Homo sapiens) is under 10 µM.
For `CC(=O)Nc1cn2cc(-c3cnc(N)c(OC4CCNCC4)n3)ccc2n1` [Example 280, N-(6-(5-amino-6-(piperidin-4-yloxy)pyrazin-2-yl)imidazo[1,2-a]pyridin-2-yl)acetamide], the EC50 in the assay with A2780 cells (Homo sapiens) was under 25 µM.
`CC(C)(C)OC(=O)N1CCC1C(=O)Nc1cn2nc(-c3cnc(N)c(C(F)(F)F)c3)ccc2n1` (centres unmarked) [Example 279, tert-butyl 2-(6-(6-amino-5-(trifluoromethyl)pyridin-3-yl)imidazo[1,2-b]pyridazin-2-ylcarbamoyl) azetidine-1-carboxylate]: the EC50 with A2780 cells was under 25 µM.
Take `CC(=O)N1CCCC[C@H]1C(=O)Nc1cn2cc(-c3cnc(N)c(C(F)(F)F)c3)ccc2n1` [Example 282, (S)-1-acetyl-N-(6-(6-amino-5-(trifluoromethyl)pyridin-3-yl)imidazo[1,2-a]pyridin-2-yl)piperidine-2-carboxamide]: in the assay on A2780 cells (Homo sapiens), the EC50 was under 25 µM.
For the compound `COCCOc1nc(-c2ccc3nc(NC(C)=O)cn3n2)cnc1N` [Example 287, N-(6-(5-amino-6-(2-methoxyethoxy)pyrazin-2-yl)imidazo[1,2-b]pyridazin-2-yl)acetamide], in the assay with A2780 cells (Homo sapiens), the EC50 was under 10 µM.
In the case of `CC(C)C(=O)Nc1cn2cc(-c3cnc(N)c(C(F)(F)F)c3)ccc2n1` [Example 278, N-(6-(6-amino-5-(trifluoromethyl)pyridin-3-yl)imidazo[1,2-a]pyridin-2-yl)isobutyramide], the EC50 in the assay with A2780 cells (Homo sapiens) is under 25 µM.
For `Nc1ncc(-c2ccc3nc(NC(=O)C4CCC(=O)NC4)cn3c2)cc1C(F)(F)F` (centres unmarked) [Example 270, N-(6-(6-amino-5-(trifluoromethyl)pyridin-3-yl)imidazo[1,2-a]pyridin-2-yl)-6-oxopiperidine-3-carboxamide], the IC50 at PI3 K Alpha (read-out: PI3K Alpha IC50) is under 1 µM.
As to `CC(=O)Nc1nc2ccc(-c3ccc(NC4CCOCC4)nc3)cc2s1` [Example 2-17, N-{6-[6-(Tetrahydro-pyran-4-ylamino)-pyridin-3-yl]-benzothiazol-2-yl}-acetamide], the IC50 on PI3 K Alpha (ATP depletion assay, read-out: PI3 K Alpha IC50) is under 1 µM.
For the compound `Nc1ncc(-c2ccc3nc(NC(=O)C4CCCC(=O)N4)cn3c2)cc1C(F)(F)F` (centres unmarked) [Example 266, N-(6-(6-amino-5-(trifluoromethyl)pyridin-3-yl)imidazo[1,2-a]pyridin-2-yl)-6-oxo-piperidine-2-carboxamide], the IC50 at PI3 K Alpha (read-out: PI3K Alpha IC50) is under 1 µM.
Still for that read-out and setting: to `CC(=O)N1CCCC[C@@H]1C(=O)Nc1cn2cc(-c3cnc(N)c(C(F)(F)F)c3)ccc2n1` [Example 47, (R)-1-acetyl-N-(6-(6-amino-5-(trifluoromethyl)pyridin-3-yl)imidazo[1,2-a]pyridin-2-yl)piperidine-2-carboxamide] belongs under 10 µM.
